Assays:
sigma σ receptor = assay: Binding assay σ (non-selective), [3H]DTG, rat cerebral cortex; settings: percent inhibition of control specific binding; compounds tested at 1×10^−6 M
Summary of the method: (§1)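 Detection relied on scintillation counting of bound ligand. Compounds at 1×10^−6 M were evaluated against specific binding, i.e. total binding corrected for the nonspecific fraction seen with excess unlabelled ligand.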

adrenergic α1 receptor = assay: Binding assay α1 (non-selective), [3H]prazosin, rat cerebral cortex; settings: percent inhibition of control specific binding; compounds tested at 1×10^−6 M
Summary of the method: as §1

muscarinic M3 receptor = biological target: T1, muscarinic M3 receptor (Homo sapiens, UniProt P20309); assay: Binding assay M3 (h), [3H]4-DAMP, CHO cells; settings: read-out: M3 [%]
T1 construct: expressed in transfected cells; host or cells: CHO cells
Summary of the method: as §1

[1] = biological target: T2, serotoninergic receptor 5-HT2C (Homo sapiens, UniProt P28335); assay: Binding assay 5-HT2C (h), [3H]mesulergine, HEK-293 cells; settings: read-out: 5-HT2C [%]
T2 construct: expressed in transfected cells; host or cells: HEK-293 cells
T2 sequence (P28335 33-458): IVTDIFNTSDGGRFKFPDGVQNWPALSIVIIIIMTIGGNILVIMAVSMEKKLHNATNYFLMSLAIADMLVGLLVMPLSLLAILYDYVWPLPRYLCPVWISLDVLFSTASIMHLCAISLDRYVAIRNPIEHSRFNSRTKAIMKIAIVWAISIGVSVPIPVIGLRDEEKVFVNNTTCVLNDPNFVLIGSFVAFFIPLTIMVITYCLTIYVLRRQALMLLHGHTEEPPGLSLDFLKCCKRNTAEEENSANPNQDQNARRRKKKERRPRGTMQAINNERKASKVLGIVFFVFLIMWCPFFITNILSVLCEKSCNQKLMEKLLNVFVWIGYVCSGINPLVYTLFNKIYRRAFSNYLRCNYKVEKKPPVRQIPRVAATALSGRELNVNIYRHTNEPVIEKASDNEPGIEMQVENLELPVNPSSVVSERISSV
Summary of the method: as §1

[2] = biological target: T3, serotoninergic 5-HT1A receptor (Homo sapiens, UniProt P08908); assay: Cellular functional assay, serotoninergic 5-HT1A receptor (agonism/antagonism); type: cell-based; settings: for inhibition at 1 µM: CHO, read-out: 5-HT1A-antag. [%]; for activation at 1 µM: agonist effect, percent of control specific agonist response (100 nM 8-OH-DPAT for control), 1×10^−6 M, 5-HT1A (h), CHO cells, read-out: 5-HT1A-ag [%]
T3 sequence (P08908 1-422): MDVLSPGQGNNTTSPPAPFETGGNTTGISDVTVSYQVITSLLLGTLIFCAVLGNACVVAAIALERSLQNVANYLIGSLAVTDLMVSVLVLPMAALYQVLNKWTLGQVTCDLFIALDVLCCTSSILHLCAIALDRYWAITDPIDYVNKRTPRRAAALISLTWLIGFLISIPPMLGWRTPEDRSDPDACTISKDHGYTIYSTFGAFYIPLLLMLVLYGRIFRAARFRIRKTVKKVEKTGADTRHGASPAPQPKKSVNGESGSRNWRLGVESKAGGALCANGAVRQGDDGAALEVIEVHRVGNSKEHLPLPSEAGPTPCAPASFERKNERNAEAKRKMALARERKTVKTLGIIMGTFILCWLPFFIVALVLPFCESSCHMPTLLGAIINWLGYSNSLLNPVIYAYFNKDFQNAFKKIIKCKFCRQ
Description: (§2) The compounds were tested at the concentration of 1×10^−6M.
(§3) In the Tables ag refers to agonism, and antag to antagonism).

[3] = biological target: T4, serotoninergic 5-HT7 receptor (Homo sapiens, UniProt P34969); assay: Cellular functional assay, serotoninergic 5-HT7 receptor (agonism/antagonism); type: cell-based; settings: for activation at 1 µM: agonist effect, percent of control specific agonist response, compounds tested at 1×10^−6M, read-out: 5-HT7-ag [%]; for inhibition at 1 µM: read-out: 5-HT7-antag. [%]
Description: as §2, §3

[4] = biological target: T5, serotoninergic 5-HT6 receptor (Homo sapiens, UniProt P50406); assay: Binding assay 5-HT6 (h), [3H]LSD, CHO cells; parameters: expressed in transfected cells; host or cells: CHO cells; settings: read-out: 5-HT6
Summary of the method: as §1

[5] = biological target: T4, serotoninergic 5-HT7 receptor; assay: Binding assay 5-HT7 (h), [3H]LSD, CHO cells; parameters: expressed in transfected cells; host or cells: CHO cells; settings: read-out: 5-HT7
Summary of the method: as §1

dopaminergic D2 receptor = dopaminergic D2 receptor (Homo sapiens, UniProt P14416); assay: Binding assay D2S (h), [3H]methyl-spiperone, HEK-293 cells; parameters: expressed in transfected cells; host or cells: HEK-293 cells; settings: read-out: D2 [%]
Summary of the method: as §1

[6] = biological target: T6, serotoninergic 5-HT2A receptor (Homo sapiens, UniProt P28223); assay: Binding assay 5-HT2A (h), [3H]ketanserin, HEK-293 cells; parameters: expressed in transfected cells; host or cells: HEK-293 cells; settings: read-out: 5-HT2A
Summary of the method: as §1

[7] = biological target: T6, serotoninergic 5-HT2A receptor; assay: Cellular functional assay, serotoninergic 5-HT2A receptor (agonism/antagonism); type: cell-based; settings: for activation at 1 µM: read-out: 5-HT2A -ag [%]; for inhibition at 1 µM: read-out: 5-HT2A -antag [%]
Description: […]. The compounds were tested at the concentration of 1×10^−6M.
Conditions and methodology (by reference to the literature) of cellular functional assays are given in Table 13 and the tests results for representative compounds are given in Table 14 (dopaminergic receptor D2), in Table 15 (dopaminergic receptor D3), in Table 16 (serotoninergic receptor 5-HT1A), in Table 17 (serotoninergic receptor 5-HT2A), in Table 18 (serotoninergic receptor 5-HT6), in Table 19 (serotoninergic receptor 5-HT7), in Table 20 (adrenergic α1 receptor), in Table 21 (adrenergic α2C receptor), in Table 22 (histaminergic H1 receptor) and in Table 23 (serotoninergic 5-HT2C receptor). In the Tables ag refers to agonism, and antag to antagonism).

[8] = biological target: T5, serotoninergic 5-HT6 receptor; assay: Cellular functional assay, serotoninergic 5-HT6 receptor (agonism/antagonism); type: cell-based; settings: for activation at 1 µM: agonist effect, percent of control specific agonist response, compounds tested at 1×10^−6M, read-out: 5-HT6-ag [%]; for inhibition at 1 µM: read-out: 5-HT6-antag. [%]
Description: as §2, §3

T5 sequence (P50406 whole entry): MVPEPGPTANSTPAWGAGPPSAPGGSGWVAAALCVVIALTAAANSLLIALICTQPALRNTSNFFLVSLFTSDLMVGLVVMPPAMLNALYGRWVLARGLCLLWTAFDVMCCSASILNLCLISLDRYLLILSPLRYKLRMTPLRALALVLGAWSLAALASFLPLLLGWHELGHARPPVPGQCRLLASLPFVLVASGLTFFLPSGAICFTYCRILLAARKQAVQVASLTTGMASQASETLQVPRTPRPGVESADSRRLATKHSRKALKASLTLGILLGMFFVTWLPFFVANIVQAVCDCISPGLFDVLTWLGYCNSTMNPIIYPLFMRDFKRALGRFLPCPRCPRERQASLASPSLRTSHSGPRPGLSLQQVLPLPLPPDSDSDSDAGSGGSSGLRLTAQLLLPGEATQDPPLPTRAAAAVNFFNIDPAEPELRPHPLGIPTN
dopaminergic D2 receptor, sequence (P14416 1-414 isoform P14416-2): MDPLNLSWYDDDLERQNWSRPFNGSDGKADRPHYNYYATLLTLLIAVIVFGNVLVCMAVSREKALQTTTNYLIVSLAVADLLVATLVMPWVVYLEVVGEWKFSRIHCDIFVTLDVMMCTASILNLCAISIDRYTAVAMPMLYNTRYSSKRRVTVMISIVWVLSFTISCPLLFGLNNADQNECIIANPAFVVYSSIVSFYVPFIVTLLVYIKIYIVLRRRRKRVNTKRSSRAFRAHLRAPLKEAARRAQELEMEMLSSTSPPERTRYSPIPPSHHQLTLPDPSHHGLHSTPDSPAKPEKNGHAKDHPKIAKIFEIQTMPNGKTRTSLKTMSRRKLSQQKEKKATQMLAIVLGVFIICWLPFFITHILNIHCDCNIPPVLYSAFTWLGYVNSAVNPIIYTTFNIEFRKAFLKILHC
T1 sequence (P20309 whole entry): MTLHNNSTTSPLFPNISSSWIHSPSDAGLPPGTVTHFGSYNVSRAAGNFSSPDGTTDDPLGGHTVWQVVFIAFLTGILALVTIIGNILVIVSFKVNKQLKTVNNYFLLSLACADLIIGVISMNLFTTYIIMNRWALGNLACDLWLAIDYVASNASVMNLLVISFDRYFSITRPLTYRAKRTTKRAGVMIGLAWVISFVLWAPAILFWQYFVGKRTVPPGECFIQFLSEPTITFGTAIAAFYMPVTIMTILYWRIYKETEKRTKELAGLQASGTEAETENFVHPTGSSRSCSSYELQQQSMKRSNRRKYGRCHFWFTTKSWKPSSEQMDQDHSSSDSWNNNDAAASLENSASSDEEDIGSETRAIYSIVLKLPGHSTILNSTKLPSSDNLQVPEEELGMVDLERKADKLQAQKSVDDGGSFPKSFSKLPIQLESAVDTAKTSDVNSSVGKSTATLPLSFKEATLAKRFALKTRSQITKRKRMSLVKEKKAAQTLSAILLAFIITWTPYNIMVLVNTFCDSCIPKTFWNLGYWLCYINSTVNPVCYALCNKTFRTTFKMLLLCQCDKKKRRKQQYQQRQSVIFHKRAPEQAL
T6 sequence (P28223 whole entry): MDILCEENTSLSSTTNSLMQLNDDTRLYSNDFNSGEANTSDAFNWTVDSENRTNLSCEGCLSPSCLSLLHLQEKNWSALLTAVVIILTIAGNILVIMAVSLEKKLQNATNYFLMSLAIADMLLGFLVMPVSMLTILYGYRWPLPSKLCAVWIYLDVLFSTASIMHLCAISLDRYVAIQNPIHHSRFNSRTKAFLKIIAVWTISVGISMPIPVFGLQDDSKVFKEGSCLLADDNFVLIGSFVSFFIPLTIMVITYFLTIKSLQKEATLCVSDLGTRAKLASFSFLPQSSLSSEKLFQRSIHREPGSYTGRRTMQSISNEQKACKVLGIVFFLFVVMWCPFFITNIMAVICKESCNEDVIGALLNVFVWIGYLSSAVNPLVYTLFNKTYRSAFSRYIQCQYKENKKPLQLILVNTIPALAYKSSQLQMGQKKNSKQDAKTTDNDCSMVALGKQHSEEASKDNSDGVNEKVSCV
T4 sequence (P34969 whole entry): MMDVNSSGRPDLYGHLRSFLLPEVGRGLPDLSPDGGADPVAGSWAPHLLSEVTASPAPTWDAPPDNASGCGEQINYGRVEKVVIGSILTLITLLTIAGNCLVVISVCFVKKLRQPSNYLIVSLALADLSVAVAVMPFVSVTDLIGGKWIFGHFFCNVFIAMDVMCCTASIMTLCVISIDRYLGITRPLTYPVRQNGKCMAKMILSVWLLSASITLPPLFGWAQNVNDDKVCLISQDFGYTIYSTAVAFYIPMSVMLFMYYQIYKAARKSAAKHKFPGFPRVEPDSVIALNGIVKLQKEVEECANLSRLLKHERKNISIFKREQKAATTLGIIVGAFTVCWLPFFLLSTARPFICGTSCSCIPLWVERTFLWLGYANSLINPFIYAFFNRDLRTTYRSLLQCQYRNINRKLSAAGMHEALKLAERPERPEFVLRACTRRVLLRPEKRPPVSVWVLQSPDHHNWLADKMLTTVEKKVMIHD

Row | Structure (SMILES) | σ [%] (sigma σ receptor) | α1 [%] (adrenergic α1 receptor) | inhibition at 1 µM (muscarinic M3 receptor) [%] | inhibition at 1 µM [1] [%] | inhibition at 1 µM [2] [%] | activation at 1 µM [2] [%] | activation at 1 µM [3] [%] | inhibition at 1 µM [3] [%] | inhibition at 1 µM [4] [%] | inhibition at 1 µM [5] [%] | inhibition at 1 µM (dopaminergic D2 receptor) [%] | inhibition at 1 µM [6] [%] | activation at 1 µM [7] [%] | inhibition at 1 µM [7] [%] | activation at 1 µM [8] [%] | inhibition at 1 µM [8] [%]
1 | O=S(=O)(NCCCCN1CCN(c2cccc3[nH]ccc23)CC1)c1ccccc1 [Compound 27, N-{4-[4-(1H-Indol-4-yl)piperazin-1-yl]butyl}benzenesulphonamide] | 78 | 96 | 46 | -1 | 48 | 56 | 5 | 8 | 34 | 92 | 90 | 62 |  |  |  | 
2 | O=S(=O)(NCCCCN1CCN(c2cccc3[nH]ccc23)CC1)c1cnc2ccccn12 [Compound 30, N-{4-[4-(1H-Indol-4-yl)piperazin-1-yl]butyl}-imidazo[1,2-a]pyridine-3-sulphonamide] | 42 | 96 | 66 | 11 | 86 | 22 | 5 | 73 | 5 | 96 | 98 | 67 |  |  |  | 
3 | O=S(=O)(NCCCCN1CCN(c2noc3ccccc23)CC1)c1cc2ccc(Cl)cc2s1 [Compound 288, N-[4-[4-(1,2-Benzoxazol-3-yl)piperazin-1-yl]butyl]-6-chlorobenzothiophene-2-sulphonamide] | 45 | 94 | 3 | 32 |  |  | -2 | 92 | 98 | 100 | 103 | 95 | -2 | 97 | 0 | 74
4 | O=S(=O)(NCCCCN1CCC(c2noc3cc(F)ccc23)CC1)c1ccc(Br)cc1 [Compound 298, 4-Bromo-N-[4-[4-(6-fluoro-1,2-benzoxazol-3-yl)piperidin-1-yl]butyl]benzenesulphonamide] | 68 | 103 | 19 | 52 |  |  | -3 | 98 | 98 | 100 | 99 | 100 | -1 | 99 | 0 | 89
5 | O=S(=O)(NCCCCN1CCC(c2noc3cc(F)ccc23)CC1)c1cc2ccccc2s1 [Compound 312, N-[4-[4-(6-Fluoro-1,2-benzoxazol-3-yl)piperidin-1-yl]butyl]benzothiophene-2-sulphonamide] | 71 | 100 | 19 | 80 |  |  | -2 | 97 | 98 | 97 | 99 | 99 | -2 | 98 | -1 | 76
6 | O=S(=O)(NCCCCN1CCC(c2noc3cc(F)ccc23)CC1)c1csc2ccccc12 [Compound 313, N-[4-[4-(6-Fluoro-1,2-benzoxazol-3-yl)piperidin-1-yl]butyl]benzothiophene-3-sulphonamide] | 83 | 100 | 25 | 59 |  |  | -2 | 100 | 100 | 100 | 101 | 101 | -3 | 98 | -3 | 91
7 | O=S(=O)(NCCCCN1CCC(c2noc3cc(F)ccc23)CC1)c1cc2ccc(Cl)cc2s1 [Compound 314, 6-Chloro-N-[4-[4-(6-fluoro-1,2-benzoxazol-3-yl)piperidin-1-yl]butyl]benzothiophene-2-sulphonamide] | 49 | 100 | 13 | 85 |  |  | -3 | 95 | 100 | 99 | 99 | 102 | -2 | 99 | 0 | 91
8 | N#Cc1cccc(S(=O)(=O)NCCCN2CCC(c3noc4cc(F)ccc34)CC2)c1 [Compound 338, 3-cyano-N-[3-[4-(6-fluoro-1,2-benzoxazol-3-yl)piperidin-1-yl]propyl]benzenesulphonamide] | 72 | 99 | 1 | 76 |  |  | -3 | 100 | 94 | 98 | 98 | 102 | -1 | 100 | 0 | 88
9 | O=S(=O)(NCCCN1CCC(c2noc3cc(F)ccc23)CC1)c1ccc2cn[nH]c2c1 [Compound 352, N-[3-[4-(6-Fluoro-1,2-benzoxazol-3-yl)piperidin-1-yl]propyl]-1H-indazole-6-sulphonamide] | 76 | 99 | 12 | 78 |  |  | -2 | 102 | 95 | 100 | 100 | 101 | -1 | 100 | -2 | 75
10 | O=c1[nH]c2cccc(N3CCN(CCCNS(=O)(=O)c4cccc5ccccc45)CC3)c2[nH]1 [Compound 423, N-[3-[4-(2-oxo-1,3-dihydrobenzimidazol-4-yl)piperazin-1-yl]propyl]naphthalene-1-sulphonamide] | 9 | 91 | -1 | 9 | 73 | 35 |  |  | 16 | 88 | 97 | 30 |  |  |  | 

— patent publication US8822517B2, “Arylosulfonamides for the treatment of CNS diseases” (Adamed SP. Z O.O., priority 2010, dated 2014)
